Measurements from patent publication US9155729B2, “Thiazolidinedione analogues” (Metabolic Solutions Development Company, LLC, priority 2006, dated 2015).
Marks after values point to notes of the source that are not given here.

Key:
PPARγ = target: T1, PPARγ (Homo sapiens, UniProt P37231); experiment: Commercial PPARγ binding assay (Invitrogen, PPAR-LBD/Fluormone PPAR Green complex); conditions: for PPARγ binding signal (fluorescence polarization, Fluormone PPAR Green displacement): mean of three experiments
T1 construct: purchased Invitrogen Corporation, Carlsbad, Calif
T1 sequence (P37231 238-503 limits assumed): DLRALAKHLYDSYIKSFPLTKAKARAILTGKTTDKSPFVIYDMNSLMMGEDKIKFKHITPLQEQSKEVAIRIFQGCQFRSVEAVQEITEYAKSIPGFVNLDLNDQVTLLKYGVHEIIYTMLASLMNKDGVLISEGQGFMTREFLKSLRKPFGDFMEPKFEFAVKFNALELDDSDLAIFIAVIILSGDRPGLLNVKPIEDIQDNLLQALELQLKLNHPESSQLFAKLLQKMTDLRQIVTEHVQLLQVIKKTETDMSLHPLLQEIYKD
Procedure: The ability of several exemplary compounds of the present invention, shown in Table A, to bind to PPARγ was measured using a commercial binding assay (Invitrogen Corporation, Carlsbad, Calif.) that measures the test compounds ability to bind with PPAR-LBD/Fluormone PPAR Green complex. These assays were performed on three occasions with each assay using four separate wells (quadruplicate) at each concentration of tested compound. The data are mean and SEM of the values obtained from the three experiments. […] Compounds were added at the concentrations shown, which range from 0.1-100 micromolar.

Diabetic KKAy mice [1] = experiment: Glucose, insulin and triglyceride in diabetic KKAy mice, 4 days oral dosing; type: in vivo; conditions: 93 mg/kg orally for 4 days, fasted, blood approx. 18 hours after last dose, mean and SEM, N=6-12
Procedure: The insulin sensitizing and antidiabetic pharmacology are measured in the KKA^Y mice as previously reported [Hofmann, C., Lomez, K., and Colca, J. R. (1991). Glucose transport deficiency corrected by treatment with the oral anti-hyperglycemic agent Pioglitazone. Endocrinology, 129:1915-1925.]. Compounds are formulated in 1% sodium carboxy methylcellulose, and 0.01% tween 20 and dosed daily by oral gavage.
Compounds were formulated by suspension and orally dosed to KKAy mice at 93 mg/kg for 4 days. The compounds were first dissolved in DMSO and then placed into aqueous suspension containing 7-10% DMSO, 1% sodium methylcarboxycellulose, and 0.01% Tween 20. On the fifth day, the mice were fasted and blood samples were obtained approximately 18 hours after the last dose. The parameters were measured by standard assay methods. Data are mean and SEM N=6-12 mice.

Diabetic KKAy mice [2] = experiment: Glucose and insulin in diabetic KKAy mice dosed 7 days with compound 1 or rosiglitazone; type: in vivo; conditions: 20 mg rosiglitazone or 100 mg/kg compound 1, fasting, 8th day, mean, 8 mice/group
Procedure: (§1) KKAy mice were dosed for 7 days with 20 mg rosigltiazone (positive control) and 100 mg/kg of compound 1 in suspension (1% sodium methyl carboxymethyl cellulose/0.01% Tween 80). On the 8th day, fasting, glucose, and insulin were measured, see Table D. The liver was isolated was used to measure hepatic mRNA for aP2, a biomarker for PPARγ activation in vivo. […] Data are mean and (SEM) for 8 mice/group.

aP2 = experiment: Hepatic mRNA for aP2, biomarker for PPARγ activation in vivo, KKAy mice
Procedure: as §1

Row | PPARγ binding signal (fluorescence polarization, Fluormone PPAR Green displacement) (PPARγ; 1 μM compound) | PPARγ binding signal (fluorescence polarization, Fluormone PPAR Green displacement) (PPARγ; 3 μM compound) | PPARγ binding signal (fluorescence polarization, Fluormone PPAR Green displacement) (PPARγ; 10 μM compound) | PPARγ binding signal (fluorescence polarization, Fluormone PPAR Green displacement) (PPARγ; 50 μM compound) | PPARγ binding signal (fluorescence polarization, Fluormone PPAR Green displacement) (PPARγ; 100 μM compound) | PPARγ binding signal (fluorescence polarization, Fluormone PPAR Green displacement) (PPARγ; .1 μM compound) | PPARγ binding signal (fluorescence polarization, Fluormone PPAR Green displacement) (PPARγ; .3 μM compound) | Binding to PPARγ (in words) (PPARγ; referring to FIG. 1 and Table B) | SMILES | Glucose (Diabetic KKAy mice [1]) | Insulin (Diabetic KKAy mice [1]) | Triglycerides (Diabetic KKAy mice [1]) | Glucose (Diabetic KKAy mice [2]) | Insulin (Diabetic KKAy mice [2]) | aP2 (relative expression in liver) (aP2; KKAy mice dosed 7 days, 20 mg rosiglitazone or 100 mg/kg compound 1, hepatic mRNA, mean, 8 mice/group) | Activation of PPARγ in vivo as compared to the positive control (in words) (aP2; KKAy mice, hepatic aP2 mRNA, 100 mg/kg for 7 days)
1 | 223 | 228 | 207 | 174 | 170 | 227 | 232 | particularly poor binders | CCc1ccc(C(=O)COc2ccc(CC3SC(=O)NC3=O)cc2)nc1 (stereo not drawn) [Compound 1] | 402 +/− 25* mg/dl | 7.6 +/− 1.9* ng/ml | 115 +/− 18* mg/dl | 291 mg/dL | 1.9 ng/mL | 5.7 | little activation of PPARγ
2 | 232 | 229 | 165 | 128 | 78 | 230 | 227 |  | CCc1ccc(C(=CC(=O)OC)COc2ccc(CC3SC(=O)NC3=O)cc2)nc1 (stereo not drawn) [Compound 11] | 662 ± 40 mg/dL | 18.9 ± 1.6 ng/mL | 476 ± 106 mg/dL |  |  |  | 
3 |  |  |  |  |  |  |  |  | CN(CCOc1ccc(CC2SC(=O)NC2=O)cc1)c1ccccn1 (stereo not drawn) [Rosiglitazone, reference compound] |  |  |  | 320 mg/dL | 3.4 ng/mL |  | 
